In patent US20040266823A1 (priority 2001, published 2004):
Counter-ions that a name gives are not always drawn.

Target: recombinant human CCR5 receptor (Homo sapiens, UniProt P51681)
Assay: MIP-1α radioligand binding assay (scintillation proximity)
Details: displacement of 0.1 nM iodinated MIP-1α; membranes from Chinese hamster ovary cells; average if tested more than once
Experimental: The ability of compounds to inhibit the binding of MIP-1α was assessed by an in vitro radioligand binding assay. Membranes were prepared from Chinese hamster ovary cells which expressed the recombinant human CCR5 receptor. These membranes were incubated with 0.1 nM iodinated MIP-1α, scintillation proximity beads and various concentrations of the compounds of the invention in 96 well plates. The amount of iodinated MIP-1α bound to the receptor was determined by scintillation counting. Competition curves were obtained for compounds and the concentration of compound which displaced 50% of bound iodinated MIP-1α was calculated (IC50).
In Table II the results are presented as Pic50 values. A Pic50 value is the negative log (to base 10) of the IC50 result, so an IC50 of 1 μM (that is 1×10^−6M) gives a Pic50 of 6. If a compounds was tested more than once then the data below is an average of the probative tests results.

Chain of recombinant human CCR5 receptor (P51681 whole entry): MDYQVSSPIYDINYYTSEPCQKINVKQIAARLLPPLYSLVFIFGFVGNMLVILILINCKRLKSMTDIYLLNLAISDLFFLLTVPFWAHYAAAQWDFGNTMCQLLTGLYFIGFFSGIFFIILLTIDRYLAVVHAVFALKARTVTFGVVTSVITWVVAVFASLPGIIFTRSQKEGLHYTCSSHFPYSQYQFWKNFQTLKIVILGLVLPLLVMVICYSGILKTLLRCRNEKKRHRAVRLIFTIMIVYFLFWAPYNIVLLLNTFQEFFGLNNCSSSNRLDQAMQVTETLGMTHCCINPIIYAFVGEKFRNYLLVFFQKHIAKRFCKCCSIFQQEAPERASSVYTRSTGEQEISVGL

Row | Pic50 | IC50 | SMILES
1 | – | 245 nM | CCN(C(=O)Cc1ccc(S(C)(=O)=O)cc1)C1CCN(CC[C@H](NC(=O)c2cnc[nH]2)c2ccccc2)CC1 [compound 90]
2 | – | 631 nM | CCN(C(=O)Cc1ccc(S(C)(=O)=O)cc1)C1CCN(CC[C@H](NC(=O)c2[nH]nnc2C(C)C)c2ccccc2)CC1 [compound 92]
3 | – | 27.5 nM | CCN(C(=O)Cc1ccc(S(C)(=O)=O)cc1)C1CCN(CC[C@H](NC(=O)c2ccc(C#N)cc2)c2ccccc2)CC1 [compound 94]
4 | – | 26.9 nM | CCN(C(=O)Cc1ccc(S(C)(=O)=O)cc1)C1CCN(CC[C@H](NC(=O)c2ccc(NC(C)=O)cc2)c2ccccc2)CC1 [compound 97]
5 | – | 14.5 nM | CCN(C(=O)Cc1ccc(S(C)(=O)=O)cc1)C1CCN(CC[C@H](NC(=O)c2cccc(S(C)(=O)=O)c2)c2ccccc2)CC1 [compound 98]
6 | – | 40.7 nM | CCN(C(=O)Cc1ccc(S(C)(=O)=O)cc1)C1CCN(CC[C@H](NC(=O)c2ccc(S(C)(=O)=O)cc2)c2ccccc2)CC1 [compound 99]
7 | – | 23.4 nM | CCN(C(=O)Cc1ccc(S(C)(=O)=O)cc1)C1CCN(CC[C@H](NC(=O)c2ccc(S(=O)(=O)NC)cc2)c2ccccc2)CC1 [compound 100]
8 | – | 4.68 nM | CCN(C(=O)Cc1ccc(S(C)(=O)=O)cc1)C1CCN(CC[C@H](NC(=O)c2ccc(NS(C)(=O)=O)cc2)c2ccccc2)CC1 [compound 101]
9 | – | 9.55 nM | CCN(C(=O)Cc1ccc(S(C)(=O)=O)cc1)C1CCN(CC[C@H](NC(=O)c2ccc(C(F)(F)F)cc2)c2ccccc2)CC1 [compound 102]
10 | – | 2.88 nM | CCN(C(=O)Cc1ccc(S(C)(=O)=O)cc1)C1CCN(CC[C@H](NC(=O)C2CCOCC2)c2cccc(F)c2)CC1 [compound 105]
11 | – | 0.933 nM | CCN(C(=O)Cc1ccc(S(C)(=O)=O)cc1)C1CCN(CC[C@H](NC(=O)N2CCCCC2)c2cccc(F)c2)CC1 [compound 107]
12 | – | 45.7 nM | CCN(C(=O)Cc1ccc(S(C)(=O)=O)cc1)C1CCN(CC[C@H](NC(=O)CC(C)(C)O)c2ccccc2)CC1 [compound 110]

More lines, now with the values behind:

Row | SMILES | Pic50 | IC50
13 | CCN(C(=O)Cc1ccc(S(C)(=O)=O)cc1)C1CCN(CC[C@H](NC(=O)c2cnccc2C(F)(F)F)c2ccccc2)CC1.Cl | 7.32 | –
14 | CCN(C(=O)Cc1ccc(S(C)(=O)=O)cc1)C1CCN(CC[C@H](NC(=O)C2CCOC(C)(C)C2)c2ccccc2)CC1 (stereo partly drawn) [Compound No. 81, (s)-N-[1-(3-phenyl-3-[2,2-dimethyltetrahydropyran-4-yl-carboxyamino]propyl)-4-piperidinyl]-N-ethyl-4-methanesulfonylphenylacetamide] | 7.7 | –
15 | CCN(C(=O)Cc1ccc(S(C)(=O)=O)cc1)C1CCN(CC[C@H](NC(=O)N2CCSCC2)c2ccccc2)CC1 [Compound No. 83, (S)-N-[1-(3-phenyl-3-[thiomorpholin-4-ylcarboxyamino]propyl)-4-piperidinyl]-N-ethyl-4-methanesulfonylphenylacetamide] | 7.97 | –
16 | CCN(C(=O)Cc1ccc(S(C)(=O)=O)cc1)C1CCN(CC[C@H](NC(=O)C(F)F)c2ccccc2)CC1 [Compound No. 84, (S)-N-[1-(3-phenyl-3-difluoroacetylaminopropyl)-4-piperidinyl]-N-ethyl-4-methanesulfonylphenylacetamide hydrochloride] | – | 35.5 nM
17 | CCN(C(=O)Cc1ccc(S(C)(=O)=O)cc1)C1CCN(CC[C@H](NC(=O)CC(F)(F)F)c2ccccc2)CC1 [Compound No. 86, (S)-N-[1-(3-phenyl-3-[3,3,3-trifluoropropionylamino]propyl)-4-piperidinyl]-N-ethyl-4-methanesulfonylphenylacetamide hydrochloride] | – | 2 nM
18 | CCN(C(=O)Cc1ccc(S(C)(=O)=O)cc1)C1CCN(CC[C@H](NC(=O)N2CCS(=O)(=O)CC2)c2ccccc2)CC1 [Compound No. 91, (S)-N-[1-(3-phenyl-3-[1,1-dioxothiomorpholin-4-ylcarboxyamino]propyl)-4-piperidinyl]-N-ethyl-4-methanesulfonylphenylacetamide] | 7.52 | –
19 | CCN(C(=O)Cc1ccc(S(C)(=O)=O)cc1)C1CCN(CC[C@H](NC(=O)c2cccc(C#N)c2)c2ccccc2)CC1 [Compound No. 93, (S)-N-[1-(3-phenyl-3-[3-cyanobenzoylamino]propyl)-4-piperidinyl]-N-ethyl-4-methanesulfonylphenylacetamide] | – | 16.2 nM
20 | CCN(C(=O)Cc1ccc(S(C)(=O)=O)cc1)C1CCN(C(C)C[C@H](NC(=O)C2CCOCC2)c2ccccc2)CC1 (stereo partly drawn) [Compound No. 95, (3′S)-N-[1-(1-methyl-3-phenyl-3-[tetrahydropyran-4-yl-carboxyamino]propyl)-4-piperidinyl]-N-ethyl-4-methanesulfonylphenylacetamide] | – | 0.191 nM
21 | CCN(C(=O)Cc1ccc(S(C)(=O)=O)cc1)C1CCN(CC[C@H](NC(=O)CCC(F)(F)F)c2ccccc2)CC1 [Compound No. 96, (S)-N-[1-(3-phenyl-3-[4,4,4-trifluorobutyrylamino]propyl)-4-piperidinyl]-N-ethyl-4-methanesulfonylphenylacetamide hydrochloride] | – | 2.34 nM
22 | CCN(C(=O)Cc1ccc(S(C)(=O)=O)cc1)C1CCN(CC[C@H](NC(=O)c2ccccc2)c2cccc(F)c2)CC1 [Compound No. 103, (S)-N-{1-[3-benzoylamino-3-(3-fluorophenyl)propyl]piperidin-4-yl}-N-ethyl-2-(4-methanesulfonyl-phenyl)acetamide] | – | 0.437 nM
23 | CCN(C(=O)Cc1ccc(S(C)(=O)=O)cc1)C1CCN(CC[C@H](NC(=O)c2cccc(F)c2)c2cccc(F)c2)CC1 [Compound No. 104, (S)-N-{1-[3-(3-fluorobenzoylamino)-3-(3-fluorophenyl)propyl]piperidin-4-yl}-N-ethyl-2-(4-methanesulfonyl-phenyl)acetamide] | – | 0.447 nM
24 | CCN(C(=O)Cc1ccc(S(C)(=O)=O)cc1)C1CCN(CC[C@H](NC(=O)CC(C)(C)C)c2cccc(F)c2)CC1 [Compound No. 106, (S)-N-{1-[3-(3,3-dimethylbutyrylamino)-3-(3-fluorophenyl)propyl]piperidin-4-yl}-N-ethyl-2-(4-methanesulfonyl-phenyl)acetamide] | – | 0.562 nM
25 | CCN(C(=O)Cc1ccc(S(C)(=O)=O)cc1)C1CCN(CC[C@H](NC(=O)CC(F)(F)F)c2cccc(F)c2)CC1 [Compound No. 108, (S)-N-{1-[3-(3,3,3-trifluoropropionylamino)-3-(3-fluorophenyl)propyl]piperidinyl}-N-ethyl-2-(4-methanesulfonyl-phenyl)acetamide] | 8.02 | –
26 | CCN(C(=O)Cc1ccc(S(C)(=O)=O)cc1)C1CCN(CC[C@H](NC(=O)C2CCSCC2)c2ccccc2)CC1 [Compound No. 109, (S)-N-[1-(3-phenyl-3-[tetrahydrothiopyran-4-yl-carboxyamino]propyl)-4-piperidinyl]-N-ethyl-4-methanesulfonylphenylacetamide] | 9.27 | –
27 | CCN(C(=O)Cc1ccc(S(C)(=O)=O)cc1)C1CCN(CC[C@H](NC(=O)c2ccoc2)c2ccccc2)CC1 [compound 52] | – | 14.1 nM
28 | CCN(C(=O)Cc1ccc(S(C)(=O)=O)cc1)C1CCN(CC[C@H](NC(=O)c2ccc[nH]2)c2ccccc2)CC1 [compound 53] | – | 15.5 nM
29 | CCN(C(=O)Cc1ccc(S(C)(=O)=O)cc1)C1CCN(CC[C@H](NC(=O)c2csnn2)c2ccccc2)CC1 [compound 63] | – | 91.2 nM
30 | CCN(C(=O)Cc1ccc(S(C)(=O)=O)cc1)C1CCN(CC[C@H](NC(=O)c2ccno2)c2ccccc2)CC1 [compound 64] | – | 331 nM
31 | CCN(C(=O)Cc1ccc(S(C)(=O)=O)cc1)C1CCN(CC[C@H](NC(=O)c2ccc(NC(C)=O)nc2)c2ccccc2)CC1 [compound 68] | – | 66.1 nM
32 | CCN(C(=O)Cc1ccc(S(C)(=O)=O)cc1)C1CCN(CC[C@H](NC(=O)c2ccc(S(C)(=O)=O)s2)c2ccccc2)CC1 [compound 79] | – | 28.2 nM
33 | CCN(C(=O)Cc1ccc(S(C)(=O)=O)cc1)C1CCN(CC[C@H](NC(=O)c2cc(F)cc(F)c2)c2ccccc2)CC1 [compound 82] | – | 20 nM
34 | CCN(C(=O)Cc1ccc(S(C)(=O)=O)cc1)C1CCN(CC[C@H](NC(=O)C(C)CC(F)(F)F)c2ccccc2)CC1 (stereo partly drawn) [compound 87] | – | 16.2 nM
35 | CCN(C(=O)Cc1ccc(S(C)(=O)=O)cc1)C1CCN(CC[C@H](NC(=O)c2ccc(C(F)(F)F)o2)c2ccccc2)CC1 [compound 88] | – | 33.1 nM
36 | CCN(C(=O)Cc1ccc(S(C)(=O)=O)cc1)C1CCN(CC[C@H](NC(=O)c2ccc(=O)[nH]c2)c2ccccc2)CC1 [compound 89] | – | 57.5 nM
